Data on 33 compounds can be found in ChEMBL document CHEMBL5620380, “Identification of 5-[5-cyano-1-(pyridin-2-ylmethyl)-1H-indole-3-carboxamido] thiazole-4-carboxylic acid as a promising dual inhibitor of urate transporter 1 and xanthine oxidase” (Eur J Med Chem, 2023).

Structures are written as SMILES. Active and inactive are the calls of the source. The rule behind the calls is not given here.

Series [1] addresses T1, Solute carrier family 22 member 12 (Homo sapiens, UniProt Q96S37).
T1 sequence (Q96S37 whole entry): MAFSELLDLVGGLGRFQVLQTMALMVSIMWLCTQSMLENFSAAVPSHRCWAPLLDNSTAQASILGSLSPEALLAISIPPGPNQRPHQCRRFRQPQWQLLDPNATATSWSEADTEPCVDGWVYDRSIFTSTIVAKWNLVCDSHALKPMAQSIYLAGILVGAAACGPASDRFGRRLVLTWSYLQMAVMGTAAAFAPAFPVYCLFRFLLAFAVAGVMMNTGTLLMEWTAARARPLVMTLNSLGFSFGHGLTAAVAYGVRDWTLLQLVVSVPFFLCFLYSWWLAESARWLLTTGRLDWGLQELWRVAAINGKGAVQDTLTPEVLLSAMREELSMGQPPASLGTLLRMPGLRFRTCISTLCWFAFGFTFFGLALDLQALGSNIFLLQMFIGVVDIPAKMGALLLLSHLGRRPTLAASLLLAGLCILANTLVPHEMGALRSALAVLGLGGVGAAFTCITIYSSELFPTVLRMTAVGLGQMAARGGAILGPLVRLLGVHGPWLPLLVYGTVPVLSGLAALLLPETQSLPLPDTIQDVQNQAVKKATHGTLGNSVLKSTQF
Briefly: Inhibition of URAT1 (unknown origin)-mediated 14C uric acid uptake expressed in HEK293 cells using 14C uric acid as substrate at 10 uM by liquid scintillation counting analysis. The series is classed as cell-based.

Series [2] has as its target T2, Xanthine dehydrogenase/oxidase (Bos taurus, UniProt P80457). Briefly: Inhibition of bovine XO assessed as inhibition of uric acid production using xanthine as substrate preincubated for 25 mins followed by substrate addition and measured for first 2 mins by spectrophotometric analysis.
Series [3] relates to Rattus norvegicus. As to the kind of experiment: Hypouricemic activity against potassium oxonate-induced hyperuricemia Sprague-Dawley rat model assessed as decrease in serum uric acid level at 10 mg/kg, ig administered 1 hr post-potassium oxonate challenge and measured after 1 to 5 hrs. To be noted: time 1-5 hrs. The series is classed as functional, organism-based.
The target in series [4] is T2, Xanthine dehydrogenase/oxidase. Briefly: Inhibition of bovine XO assessed as inhibition of uric acid production using xanthine as substrate at 10 uM preincubated for 25 mins followed by substrate addition and measured for first 2 mins by spectrophotometric analysis. To be noted: cattle, time 27 min.
The target is the same in series [5]. As to the kind of experiment: Potency index, ratio of allopurinol IC50 to test compound IC50 for inhibition of bovine XO. The conditions noted are these: cattle.
Series [6] has the same target. As to the kind of experiment: Mixed inhibition of bovine XO assessed as increase in Km with decrease in Vmax using xanthine as substrate by Lineweaver-Burk plot analysis. To be noted: cattle.
The subject of series [7] is Rattus norvegicus. As to the kind of experiment: Hypouricemic activity against potassium oxonate-induced hyperuricemia Sprague-Dawley rat model assessed as decrease in serum uric acid level at 10 mg/kg, ig administered 1 hr post-potassium oxonate challenge and measured after 3 hrs. The series is classed as functional. To be noted: po.
The subject of series [8] is Rattus norvegicus. Briefly: Hypouricemic activity against potassium oxonate-induced hyperuricemia Sprague-Dawley rat model assessed as decrease in AUC of serum uric acid level at 10 mg/kg, ig administered 1 hr post-potassium oxonate challenge and measured after 1 to 5 hrs. The series is classed as functional. The conditions noted are these: po, time 1-5 hrs.

T2 sequence (P80457 whole entry): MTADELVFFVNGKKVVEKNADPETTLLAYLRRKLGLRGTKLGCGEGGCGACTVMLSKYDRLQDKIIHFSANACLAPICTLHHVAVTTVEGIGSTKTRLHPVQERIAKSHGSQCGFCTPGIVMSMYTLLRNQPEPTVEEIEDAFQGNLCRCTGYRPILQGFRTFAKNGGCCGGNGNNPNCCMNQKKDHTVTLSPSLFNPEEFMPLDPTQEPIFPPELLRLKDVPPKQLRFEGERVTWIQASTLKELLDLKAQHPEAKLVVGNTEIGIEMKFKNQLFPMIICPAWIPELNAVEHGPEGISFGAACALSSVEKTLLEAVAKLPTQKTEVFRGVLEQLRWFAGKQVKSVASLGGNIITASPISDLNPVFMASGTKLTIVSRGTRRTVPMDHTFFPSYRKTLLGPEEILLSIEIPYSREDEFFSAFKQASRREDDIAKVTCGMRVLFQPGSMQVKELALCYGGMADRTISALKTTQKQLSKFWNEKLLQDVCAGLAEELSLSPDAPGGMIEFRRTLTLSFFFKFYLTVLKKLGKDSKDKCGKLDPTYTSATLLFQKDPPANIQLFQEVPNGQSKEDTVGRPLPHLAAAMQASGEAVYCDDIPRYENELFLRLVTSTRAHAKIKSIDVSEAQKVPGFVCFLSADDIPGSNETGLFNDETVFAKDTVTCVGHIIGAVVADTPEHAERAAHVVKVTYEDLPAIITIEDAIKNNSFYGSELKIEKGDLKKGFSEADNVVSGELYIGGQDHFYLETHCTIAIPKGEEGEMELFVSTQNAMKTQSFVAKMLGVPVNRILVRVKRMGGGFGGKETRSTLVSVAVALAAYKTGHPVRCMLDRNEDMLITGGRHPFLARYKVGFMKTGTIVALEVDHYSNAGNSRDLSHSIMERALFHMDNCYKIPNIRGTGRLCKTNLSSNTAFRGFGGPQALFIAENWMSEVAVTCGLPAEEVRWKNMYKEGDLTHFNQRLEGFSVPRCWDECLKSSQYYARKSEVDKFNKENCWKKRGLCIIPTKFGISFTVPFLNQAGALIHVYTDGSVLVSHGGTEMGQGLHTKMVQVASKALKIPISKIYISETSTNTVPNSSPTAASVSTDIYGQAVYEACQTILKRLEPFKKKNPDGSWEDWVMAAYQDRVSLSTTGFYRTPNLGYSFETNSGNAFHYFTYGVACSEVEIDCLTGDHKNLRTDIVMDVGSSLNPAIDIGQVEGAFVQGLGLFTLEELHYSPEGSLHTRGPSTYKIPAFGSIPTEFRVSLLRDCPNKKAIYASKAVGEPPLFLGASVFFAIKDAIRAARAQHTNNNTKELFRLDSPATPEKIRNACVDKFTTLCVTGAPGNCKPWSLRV

`O=C(O)c1ccc(NC(=O)c2c[nH]c3ccccc23)cc1`: in series [1], the inhibition at 10 µM was found to be 0.1%. Take `O=C(O)c1cccc(NC(=O)c2c[nH]c3ccccc23)c1`: in series [1], the inhibition at 10 µM stood at 25.8%.

For the compound `O=C(O)c1ccccc1NC(=O)c1c[nH]c2ccccc12`, the inhibition at 10 µM in series [1] was 33.2%. In the case of `CC(C)(C)c1ccc(Cn2cc(C(=O)Nc3ccccc3C(=O)O)c3ccccc32)cc1`, in series [1], the inhibition at 10 µM is -4.8%. As to `O=C(O)c1ccccc1NC(=O)c1cn(Cc2ccccc2F)c2ccccc12`, the inhibition at 10 µM in series [1] was 40.7%. `O=C(O)c1ccccc1NC(=O)c1cn(Cc2cccnc2)c2ccccc12`: the inhibition at 10 µM in series [1] came out at 43.1%. Same read-out and setting: the same measure for `O=C(O)c1ccccc1NC(=O)c1cn(Cc2ccncc2)c2ccccc12`: 68.4%; for `O=C(O)CSc1nnc(Br)n1-c1ccc(C2CC2)c2ccccc12`: 47%.

For the compound `N#Cc1ccc2c(c1)c(C(=O)Nc1ncc(C(=O)O)s1)cn2Cc1ccccn1`, the inhibition at 10 µM in series [1] stood at 15.9%. For the same compound, the half-maximal inhibitory concentration (IC50) in series [2] was found to be 2120 nM. In the case of `Cc1ccc2c(c1)c(C(=O)Nc1ccccc1C(=O)O)cn2Cc1ccccn1`, in series [1], the inhibition at 10 µM was 46.8%. Same read-out and setting: next, `O=C(O)c1ccccc1NC(=O)c1cn(Cc2cccs2)c2ccccc12`: 56.7%; `O=C(O)c1ccccc1NC(=O)c1cn(Cc2ccc(Br)cc2)c2ccccc12`: 73.6%. As to `N#Cc1ccc2c(c1)c(C(=O)Nc1cc[nH]c1C(=O)O)cn2Cc1ccccn1`, the inhibition at 10 µM in series [1] is 51%. In addition, in series [2], the half-maximal inhibitory concentration (IC50) is 2670 nM.

`COc1ccc(/C=C/C(=O)Nc2ccccc2C(=O)O)cc1OC`: the inhibition at 10 µM in series [1] worked out at 44.9%. For the same compound, the outcome in the series with Rattus norvegicus [3] was Active. Take `O=C(O)c1ccccc1NC(=O)c1cn(C(=O)c2ccccc2)c2ccccc12`: the inhibition at 10 µM in series [1] was found to be 10.9%. Turning to `Cc1ccc2c(C(=O)Nc3ccccc3C(=O)O)cn(Cc3ccccn3)c2c1`, the inhibition at 10 µM in series [1] was 49.1%.

As for `O=C(O)c1ccccc1NC(=O)c1cn(Cc2ncccn2)c2ccccc12`, in series [1], the inhibition at 10 µM is 49.9%.

Consider `O=C(O)c1ccccc1NC(=O)c1cn(Cc2ccccc2)c2ccccc12`, for which, in series [1], the inhibition at 10 µM is 41.3%. Consider `O=C(O)c1ccccc1NC(=O)c1cn(Cc2cscn2)c2ccccc12`, for which, in series [1], the inhibition at 10 µM came to 64.4%. With `O=C(O)c1ccccc1NC(=O)c1cn(Cc2cccnn2)c2ccccc12`, in series [1], the inhibition at 10 µM came out at 10.4%. Turning to `N#Cc1ccc2c(c1)c(C(=O)Nc1ccccc1C(=O)O)cn2Cc1ccccn1`, the values for the inhibition at 10 µM in series [1] and in series [4] were 60.7% and 33.5%, respectively. As for `Cc1ccc(Cn2cc(C(=O)Nc3ccccc3C(=O)O)c3ccccc32)cc1`, the inhibition at 10 µM in series [1] turned out to be 61%. For the compound `O=C(O)c1ccccc1NC(=O)c1cn(Cc2ccc(F)cc2)c2ccccc12`, the inhibition at 10 µM in series [1] was determined as 73.4%. Still for that read-out and setting: the same measure for `O=C(O)c1ccccc1NC(=O)c1cn(Cc2ccc(Cl)cc2)c2ccccc12`: 69.4%; for `O=C(O)c1ccccc1NC(=O)c1cn(Cc2ccccn2)c2ccccc12`: 81.4%. Regarding `Oc1ncnc2[nH]ncc12`, the outcome in the series with Rattus norvegicus [3] was Active. In the case of `O=C(O)c1ccccc1NC(=O)c1cn(Cc2ccccn2)c2cc(F)ccc12`, in series [1], the inhibition at 10 µM amounted to 51.6%. Regarding `O=C(O)c1ccccc1NC(=O)c1cn(Cc2cnccn2)c2ccccc12`, the inhibition at 10 µM in series [1] is 52.7%. With `O=C(O)c1ccccc1NC(=O)c1cn(Cc2cccc(F)c2)c2ccccc12`, the inhibition at 10 µM in series [1] was found to be 48%.

Regarding `N#Cc1ccc2c(c1)c(C(=O)Nc1scnc1C(=O)O)cn2Cc1ccccn1`, in series [1], the inhibition at 10 µM was found to be 48%. Besides, the IC50 in series [2] is 1010 nM. In addition, the “Ratio IC50” value in series [5] turned out to be 9.1. Besides, the “inhibition (INH)” value in series [6] was “Active”. Besides, the inhibition in vivo at 10 mg/kg in the series with Rattus norvegicus [7] is 22.3%; in the series on Rattus norvegicus [8] it was 25.8%. On to `N#Cc1ccc2c(C(=O)Nc3ccccc3C(=O)O)cn(Cc3ccccn3)c2c1`, for which, in series [1], the inhibition at 10 µM was determined as 65.7%. Turning to `O=C(O)c1ccccc1NC(=O)c1cn(Cc2ccccn2)c2ccc(F)cc12`, the inhibition at 10 µM in series [1] was determined as 51.1%. On to `COc1ccc(Cn2cc(C(=O)Nc3ccccc3C(=O)O)c3ccccc32)cc1`, for which the inhibition at 10 µM in series [1] is 53.9%.
